Patent publication US10030020B2, “Spirocycle compounds and methods of making and using same” (Abide Therapeutics, Inc., priority 2016, dated 2018)
pIC50: −log10 of the molar value.

Experiments:
[1] = target: T1, MAGL (Mus musculus (Mouse), UniProt O35678); experiment: In vitro competitive activity-based protein profiling (mouse brain membrane fraction or cell lysates), MAGL band; assay type: biochemical; conditions: mouse proteome; for inhibition at 1 µM: read-out: MAGL % Inh 1 μM (mouse); for pIC50: competitive ABPP
Method: In Vitro Competitive Activity-Based Protein Profiling.
Proteomes (mouse brain membrane fraction or cell lysates) (50 μL, 1.0 mg/mL total protein concentration) were preincubated with varying concentrations of inhibitors at 37° C. After 30 min, FP—Rh (1.0 μL, 50 μM in DMSO) was added and the mixture was incubated for another 30 min at 37° C. Reactions were quenched with SDS loading buffer (50 μL-4×) and run on SDS-PAGE.

[2] = target: T2, ABHD6 (Mus musculus (Mouse), UniProt Q8R2Y0); experiment: Mouse brain proteomes from inhibitor treated mice (oral gavage, sacrificed 4 h after administration, ABPP analysis), ABHD6; assay type: in vivo, mouse (C57Bl/6J); conditions: 5 mg/kg oral gavage
Summary of the method: (§1)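 Wild-type C57Bl/6J mice; p.o. gavage, vehicle e.g. PEG400/EtOH/PBS 7/2/1; 5 mg/kg. Brain harvested 4 h post-dose, proteome profiled by ABPP. Read-out: % inhibition.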

[3] = target: T2, ABHD6; experiment: In vitro competitive activity-based protein profiling (mouse brain membrane fraction or cell lysates), ABHD6 band; assay type: biochemical; conditions: mouse proteome; for inhibition at 1 µM: read-out: ABHD6 % Inh 1 μM (mouse); for pIC50: competitive ABPP
Summary of the method: (§2)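 Mouse proteome samples (brain membrane fraction or cell lysate, 1.0 mg/mL protein) were pretreated with varying inhibitor concentrations and subsequently probed with fluorophosphonate-rhodamine, each step lasting 30 min at 37° C. Labelled proteins were separated by SDS-PAGE, and band fluorescence was imaged and quantified.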

[4] = target: T1, MAGL; experiment: Mouse brain proteomes from inhibitor treated mice (oral gavage, sacrificed 4 h after administration, ABPP analysis); assay type: in vivo, mouse (C57Bl/6J); conditions: 5 mg/kg oral gavage
Summary of the method: as §1

[5] = target: T3, FAAH (Mus musculus (Mouse), UniProt O08914); experiment: Mouse brain proteomes from inhibitor treated mice (oral gavage, sacrificed 4 h after administration, ABPP analysis), FAAH; assay type: in vivo, mouse (C57Bl/6J); conditions: 5 mg/kg oral gavage
Summary of the method: as §1

[6] = target: MAGL (Homo sapiens (Human), UniProt Q99685); experiment: In vitro competitive activity-based protein profiling (human prefrontal cortex or cell membrane fractions; hMAGL expressed in HEK293T cells); assay type: biochemical; conditions: human proteome, competitive ABPP
Method: In Vitro Competitive Activity-Based Protein Profiling (Human).
Proteomes (human prefrontal cortex or cell membrane fractions) (50 μL, 1.0-2.0 mg/mL total protein concentration) were preincubated with varying concentrations of inhibitors at 37° C. After 30 min, FP—Rh or JW912 (1.0 μL, 50 μM in DMSO) was added and the mixture was incubated for another 30 min at room temperature. Reactions were quenched with SDS loading buffer (15 μL-4×) and run on SDS-PAGE.
Recombinant Expression of Human MAGL in HEK293T Cells.
Cell lysates were diluted with mock proteomes for use in competitive ABPP experiments.

[7] = target: T3, FAAH; experiment: In vitro competitive activity-based protein profiling (mouse brain membrane fraction or cell lysates), FAAH band; assay type: biochemical; conditions: mouse proteome; for inhibition at 1 µM: read-out: FAAH % Inh 1 μM (mouse); for pIC50: competitive ABPP
Summary of the method: as §2

T1 sequence (O35678 whole entry): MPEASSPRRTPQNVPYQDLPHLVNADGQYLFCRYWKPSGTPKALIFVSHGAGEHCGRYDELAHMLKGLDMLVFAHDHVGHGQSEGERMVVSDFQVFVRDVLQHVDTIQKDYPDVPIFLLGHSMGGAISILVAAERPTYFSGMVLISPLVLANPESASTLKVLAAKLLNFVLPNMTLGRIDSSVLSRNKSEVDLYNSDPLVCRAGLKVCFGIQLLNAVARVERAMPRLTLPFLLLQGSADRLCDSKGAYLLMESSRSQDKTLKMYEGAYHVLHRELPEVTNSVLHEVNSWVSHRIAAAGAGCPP
T3 sequence (O08914 whole entry): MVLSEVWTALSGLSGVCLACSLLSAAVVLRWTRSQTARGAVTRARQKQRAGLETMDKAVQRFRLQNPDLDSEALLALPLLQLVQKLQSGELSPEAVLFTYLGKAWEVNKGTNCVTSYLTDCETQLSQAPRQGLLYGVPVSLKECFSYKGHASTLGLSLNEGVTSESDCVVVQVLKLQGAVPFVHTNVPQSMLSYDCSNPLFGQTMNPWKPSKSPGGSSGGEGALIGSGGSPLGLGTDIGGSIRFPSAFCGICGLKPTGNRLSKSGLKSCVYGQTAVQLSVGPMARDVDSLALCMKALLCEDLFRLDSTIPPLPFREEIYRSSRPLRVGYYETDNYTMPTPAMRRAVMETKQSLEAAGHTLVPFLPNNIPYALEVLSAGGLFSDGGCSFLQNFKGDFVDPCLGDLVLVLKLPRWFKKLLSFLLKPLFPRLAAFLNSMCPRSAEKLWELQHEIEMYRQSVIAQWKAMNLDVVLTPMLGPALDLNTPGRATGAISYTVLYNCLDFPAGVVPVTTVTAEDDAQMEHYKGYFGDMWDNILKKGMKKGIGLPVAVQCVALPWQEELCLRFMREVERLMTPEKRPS
Chain of MAGL (Homo sapiens (Human), UniProt Q99685) (Q99685 whole entry): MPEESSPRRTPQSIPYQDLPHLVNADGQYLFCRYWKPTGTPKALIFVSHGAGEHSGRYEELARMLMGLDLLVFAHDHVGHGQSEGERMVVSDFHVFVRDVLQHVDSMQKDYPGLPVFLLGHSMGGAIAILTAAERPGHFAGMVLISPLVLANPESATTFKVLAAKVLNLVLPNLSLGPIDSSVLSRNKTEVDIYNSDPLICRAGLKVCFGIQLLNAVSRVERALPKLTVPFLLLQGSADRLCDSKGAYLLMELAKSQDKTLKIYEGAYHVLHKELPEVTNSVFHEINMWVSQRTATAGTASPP
T2 sequence (Q8R2Y0 whole entry): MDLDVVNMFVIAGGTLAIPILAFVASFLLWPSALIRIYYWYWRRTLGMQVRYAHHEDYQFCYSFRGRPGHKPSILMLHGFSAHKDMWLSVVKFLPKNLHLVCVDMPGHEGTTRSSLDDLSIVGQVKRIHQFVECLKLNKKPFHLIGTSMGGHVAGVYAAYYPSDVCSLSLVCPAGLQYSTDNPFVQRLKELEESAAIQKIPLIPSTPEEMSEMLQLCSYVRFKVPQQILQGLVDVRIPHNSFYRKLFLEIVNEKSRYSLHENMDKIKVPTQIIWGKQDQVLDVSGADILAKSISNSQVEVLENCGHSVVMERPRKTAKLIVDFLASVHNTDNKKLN

Compound	inhibition at 1 µM [1] [%]	pIC50 [1]	ABHD6 % Inh 5 mg/kg (mouse) [2]	inhibition at 1 µM [3] [%]	pIC50 [3]	MAGL % Inh 5 mg/kg (mouse) [4]	FAAH % Inh 5 mg/kg (mouse) [5]	pIC50 [6]	inhibition at 1 µM [7] [%]	pIC50 [7]
CN(C)C(=O)C1CCN(c2cc(C(F)(F)F)ccc2CN2CCCC23CCN(C(=O)OC(C(F)(F)F)C(F)(F)F)CC3)CC1 [Example 16, 1,1,1,3,3,3-Hexafluoropropan-2-yl 1-(2-(4-(dimethylcarbamoyl)piperidin-1-yl)-4-(trifluoromethyl)benzyl)-1,8-diazaspiro[4.5]decane-8-carboxylate]	> 75	> 7.00	# (# is <25%)	< 25	< 6.00	# (# is <25%)	# (# is <25%)	> 7.00	< 25	< 6.00
O=C(OC(C(F)(F)F)C(F)(F)F)N1CCC2(CCCN2Cc2ccc(C(F)(F)F)cc2N2CCN(CCF)CC2)CC1 [Example 20, 1,1,1,3,3,3-Hexafluoropropan-2-yl 1-(2-(4-(2-fluoroethyl)piperazin-1-yl)-4-(trifluoromethyl)benzyl)-1,8-diazaspiro[4.5]decane-8-carboxylate]		> 7.00	# (# is <25%)		< 6.00	## (## is equal to or greater than 25% but less than 75%)	# (# is <25%)	> 7.00		< 6.00
CN1CCCc2ccc(CN3CCCC34CCN(C(=O)OC(C(F)(F)F)C(F)(F)F)CC4)cc21 [Example 68, 1,1,1,3,3,3-Hexafluoropropan-2-yl 1-((1-methyl-1,2,3,4-tetrahydroquinolin-7-yl)methyl)-1,8-diazaspiro[4.5]decane-8-carboxylate]	> 75	> 7.00	# (# is <25%)	< 25	< 6.00	### (### is ≥75%)	# (# is <25%)	> 7.00	< 25	< 6.00
O=C(O)C1CCN(c2cc(C(F)(F)F)ccc2CN2CCC3(CCN(C(=O)OC(C(F)(F)F)C(F)(F)F)CC3)C2)CC1 [Example 119, 1-(2-((8-(((1,1,1,3,3,3-Hexafluoropropan-2-yl)oxy)carbonyl)-2,8-diazaspiro[4.5]decan-2-yl)methyl)-5-(trifluoromethyl)phenyl)piperidine-4-carboxylic acid]	> 75	> 7.00	### (### is ≥75%)	≥ 75	6.00 to 7.00	### (### is ≥75%)	# (# is <25%)	> 7.00	< 25	< 6.00
O=C(O)C1CCN(c2cc(Cl)ccc2CN2CCCC23CCN(C(=O)OC(C(F)(F)F)C(F)(F)F)CC3)CC1 [Example 120, 1-(5-Chloro-2-((8-(((1,1,1,3,3,3-hexafluoropropan-2-yl)oxy)carbonyl)-1,8-diazaspiro[4.5]decan-1-yl)methyl)phenyl)piperidine-4-carboxylic acid]	> 75	> 7.00	# (# is <25%)	< 25	< 6.00	### (### is ≥75%)	# (# is <25%)	> 7.00	< 25	< 6.00
O=C(O)C1CCN(c2cc(C(F)(F)F)ccc2CN2CCCC23CCN(C(=O)OC(C(F)(F)F)C(F)(F)F)CC3)CC1 [Example 121, 1-(2-((8-(((1,1,1,3,3,3-Hexafluoropropan-2-yl)oxy)carbonyl)-1,8-diazaspiro[4.5]decan-1-yl)methyl)-5-(trifluoromethyl)phenyl)piperidine-4-carboxylic acid]	> 75	> 7.00	# (# is <25%)	< 25	< 6.00	### (### is ≥75%)	# (# is <25%)	> 7.00	< 25	< 6.00
O=C(O)C1CCN(c2cc(Cl)cc(CN3CCCC34CCN(C(=O)OC(C(F)(F)F)C(F)(F)F)CC4)c2)CC1 [Example 122, 1-(3-Chloro-5-((8-(((1,1,1,3,3,3-hexafluoropropan-2-yl)oxy)carbonyl)-1,8-diazaspiro[4.5]decan-1-yl)methyl)phenyl)piperidine-4-carboxylic acid]	> 75	> 7.00	## (## is equal to or greater than 25% but less than 75%)	< 25	< 6.00	### (### is ≥75%)	## (## is equal to or greater than 25% but less than 75%)	> 7.00	< 25	< 6.00
O=C(O)C1CCN(c2cc(CN3CCCC34CCN(C(=O)OC(C(F)(F)F)C(F)(F)F)CC4)cc(C(F)(F)F)c2)CC1 [Example 123, 1-(3-((8-(((1,1,1,3,3,3-Hexafluoropropan-2-yl)oxy)carbonyl)-1,8-diazaspiro[4.5]decan-1-yl)methyl)-5-(trifluoromethyl)phenyl)piperidine-4-carboxylic acid]	> 75	> 7.00	## (## is equal to or greater than 25% but less than 75%)	< 25	< 6.00	### (### is ≥75%)	# (# is <25%)	> 7.00	< 25	< 6.00
O=C(OC(C(F)(F)F)C(F)(F)F)N1CCC2(CCCN2Cc2ccc(C(F)(F)F)c(N3CCOCC3)c2)CC1 [Example 133, 1,1,1,3,3,3-Hexafluoropropan-2-yl 1-(3-morpholino-4-(trifluoromethyl)benzyl)-1,8-diazaspiro[4.5]decane-8-carboxylate]	> 75	> 7.00	# (# is <25%)	< 25	< 6.00	### (### is ≥75%)	# (# is <25%)	> 7.00	< 25	< 6.00
O=C(OC(C(F)(F)F)C(F)(F)F)N1CCC2(CCCN2Cc2ccc(C(F)(F)F)c(N3CCCC3)c2)CC1 [Example 134, 1,1,1,3,3,3-Hexafluoropropan-2-yl 1-(3-(pyrrolidin-1-yl)-4-(trifluoromethyl)benzyl)-1,8-diazaspiro[4.5]decane-8-carboxylate]	> 75	> 7.00	# (# is <25%)	< 25	< 6.00	### (### is ≥75%)	# (# is <25%)	> 7.00	< 25	< 6.00
O=C(O)c1cc(CN2CCCC23CCN(C(=O)OC(C(F)(F)F)C(F)(F)F)CC3)ccc1C(F)(F)F [Example 179, 5-((8-((1,1,1,3,3,3-Hexafluoropropan-2-yloxy)carbonyl)-1,8-diazaspiro[4.5]decan-1-yl)methyl)-2-(trifluoromethyl)benzoic acid]	> 75	6.00 to 7.00	# (# is <25%)	< 25	< 6.00	### (### is ≥75%)	## (## is equal to or greater than 25% but less than 75%)	> 7.00	< 25	< 6.00
CS(=O)(=O)C1CCN(c2cc(C(F)(F)F)ccc2CN2CCCC23CCN(C(=O)OC(C(F)(F)F)C(F)(F)F)CC3)C1 (stereo not drawn) [Example 193, 1,1,1,3,3,3-Hexafluoropropan-2-yl 1-(2-(3-(methylsulfonyl)pyrrolidin-1-yl)-4-(trifluoromethyl)benzyl)-1,8-diazaspiro[4.5]decane-8-carboxylate]	> 75		# (# is <25%)	< 25		## (## is equal to or greater than 25% but less than 75%)	# (# is <25%)	> 7.00	< 25	
